According to patent US20240139333A1, “2,6-DICHLOROPHENYL ESTER COMPOUNDS AND USE THEREOF” (Fusion Pharmaceuticals Inc., priority 2021, published 2024):

What was measured:
[1] = Comparative active ester reactivity study with HOA nucleophile (benzhydroxamic acid); details: Benzhydroxamic Acid 1 eq., 22±2° C.
Procedure: (§1) General Experimental Protocol for Comparative Active Ester Reactivity Study with HOPO or HOA Nucleophiles
(§2) To a 4 mL scintillation vial containing Compound A-E (in respective experiments; 1 eq.) was added a stir bar followed by 150 μL of HPLC grade acetonitrile. In another 4 mL scintillation vial containing a respective nucleophile (1 eq.) was added 280 μL HPLC grade water. The solutions were combined and allowed to stir at room temperature (22±2° C.) for 4 hours. Timed aliquots at time (T)=15, 30, 60, 120 and 240 minutes were taken and analyzed by HPLC-MS using elution method 1 (Table 1).

[2] = Temperature stability study in H2O; type: physicochemical
Procedure: (§3) 20° C.: To a 4 mL scintillation vial containing Compound A-E (in respective experiments; 0.8 mg) was added 4 mL of HPLC grade water to create a 0.2 mg/mL solution. 2 mL of this solution was added to a 2 mL HPLC vial and placed in the auto sampler of an HPLC-MS at 20° C. Timed aliquots at time (T)=15, 30, 60, 120, 240 and 480 minutes were taken and analyzed by HPLC-MS using elution method 1 (Table 4).
50° C.: To a 4 mL scintillation vial containing Compound A-E (in respective experiments; 0.8 mg) was added a stir bar followed by 4 mL of HPLC grade water to create a 0.2 mg/mL solution. The vial was capped and allowed to stir in a 50° C. oil bath for 8 hours. Timed aliquots at time (T) =15, 30, 60, 120, 240 and 480 minutes were taken and analyzed by HPLC-MS using elution method 1 (Table 4).

[3] = Comparative active ester reactivity study with HOA nucleophile (N-hydroxy-N-methylbenzamide); details: N-Hydroxy-N-methylbenzamide 1 eq., 22±2° C.
Procedure: as §1, §2

[4] = Nucleophilic reactivity study with L-Lysine; details: L-Lysine 5 equiv, 15 min, 22±2° C.
Procedure: General Experimental Protocol for Nucleophilic Reactivity Study with L-Lysine
To a 4 mL scintillation vial containing Compound A-E (in respective experiments; 1 eq.) was added a stir bar followed by 70 μL of HPLC grade acetonitrile. In another 4 mL scintillation vial containing L-Lysine monohydrochloride (5 eq.) was added 130 μL HPLC grade water followed by diisopropylethylamine (5 eq.). The solutions were combined and allowed to stir at room temperature (22±2° C.). Timed aliquots at time (T)=15, 30, 60 and 120 minutes were taken and analyzed by HPLC-MS using elution method 1 (Table 2).

[5] = Comparative active ester reactivity study with HOPO nucleophile; details: 1,2-HOPO 1 eq., 22±2° C.
Procedure: as §1, §2

DMSO stability study = type: physicochemical
Procedure: To a 4 mL scintillation vial containing Compound A-E (in respective experiments; 4 mg) was added a stir bar followed by 500 μL of anhydrous dimethyl sulfoxide and was allowed to stir at room temperature (22±2° C.) for 4 hours. Timed aliquots at time (T)=15, 30, 60, 120 and 240 minutes were taken, dissolved in water to achieve 2% DMSO composition and analyzed by HPLC-MS using elution method 1 (Table 5).

pH stability study = type: physicochemical; details: 20° C.
Procedure: as §3, with “To” for “20° C.: To”, “either a pH 3, pH 5 pH 7 or pH 9 buffer” for “HPLC grade water”, “3). […]” for “4).”
pH 3 Buffer: Citric acid/Na2HPO4 (79.45 mL 0.1 M-citric acid and 20.55 mL 0.2-Na2HPO4) pH 5 Buffer: Citric acid/Na2HPO4 (48.50 mL 0.1 M-citric acid and 51.50 mL 0.2-Na2HPO4) pH 7 Buffer: Citric acid/Na2HPO4 (17.65 mL 0.1 M-citric acid and 82.35 mL 0.2-Na2HPO4) pH 9 Buffer: Sodium Carbonate/Sodium Bicarbonate (10 mL 0.1 M-Na2CO3 and 90 mL 0.1-NaHCO3)

[6] = Stability of Compound J at pH = 2; type: physicochemical; details: pH 2, 20° C.
Procedure: To an HPLC vial was added a 0.2 mg/mL solution of Compound J dissolved in H2O (0.1% v/v TFA) at pH=2 and the stability was monitored by HPLC-MS at 20° C. over 16 hours. Timed aliquots at time (T)=0, 30, 60, 120, 180, 240, 480 and 960 minutes were taken and analyzed by HPLC-MS using elution method 4 at 214 nm (Table 9).

## O=C(CCc1cccnc1)ON1C(=O)CCC1=O [Compound E, 2,5-Dioxo-1-pyrrolidinyl 3-pyridinepropanoate]
[1]; 15 min
  % Active Ester Remaining: 1.13%
[1]; 30 min
  % Active Ester Remaining: 0.85%
[1]; 60 min
  % Active Ester Remaining: 0.67%
[1]; 120 min
  % Active Ester Remaining: 0.49%
[1]; 240 min
  % Active Ester Remaining: 0.35%
[2]; 20° C., 15 min
  % Remaining: 87.24%
[2]; 20° C., 30 min
  % Remaining: 78.45%
[2]; 20° C., 60 min
  % Remaining: 70.03%
[2]; 20° C., 120 min
  % Remaining: 54.46%
[2]; 20° C., 240 min
  % Remaining: 24.99%
[2]; 20° C., 480 min
  % Remaining: 4.50%
[2]; 50° C., 15 min
  % Remaining: 72.20%
[2]; 50° C., 30 min
  % Remaining: 47.31%
[2]; 50° C., 60 min
  % Remaining: 20.75%
[2]; 50° C., 120 min
  % Remaining: 3.50%
[2]; 50° C., 240 min
  % Remaining: 0.10%
[2]; 50° C., 480 min
  % Remaining: 0%
[3]; 15 min
  % Active Ester Remaining: 32.07%
[3]; 30 min
  % Active Ester Remaining: 20.77%
[3]; 60 min
  % Active Ester Remaining: 11.58%
[3]; 120 min
  % Active Ester Remaining: 6.52%
[3]; 240 min
  % Active Ester Remaining: 4.21%
[4]
  % Active Ester Remaining: 0%
[5]; 15 min
  % Active Ester Remaining: 15.47%
[5]; 30 min
  % Active Ester Remaining: 12.28%
[5]; 60 min
  % Active Ester Remaining: 11.06%
[5]; 120 min
  % Active Ester Remaining: 7.15%
[5]; 240 min
  % Active Ester Remaining: 3.69%
DMSO stability study; 15 min
  % Active Ester Remaining in DMSO at 22 ± 2° C.: 97.29%
DMSO stability study; 30 min
  % Active Ester Remaining in DMSO at 22 ± 2° C.: 97.13%
DMSO stability study; 60 min
  % Active Ester Remaining in DMSO at 22 ± 2° C.: 96.83%
DMSO stability study; 120 min
  % Active Ester Remaining in DMSO at 22 ± 2° C.: 94.53%
DMSO stability study; 240 min
  % Active Ester Remaining in DMSO at 22 ± 2° C.: 91.57%
pH stability study; pH 3 buffer, 15 min
  % Remaining: 80.40%
pH stability study; pH 3 buffer, 30 min
  % Remaining: 59.68%
pH stability study; pH 3 buffer, 60 min
  % Remaining: 44.51%
pH stability study; pH 3 buffer, 120 min
  % Remaining: 26.16%
pH stability study; pH 3 buffer, 240 min
  % Remaining: 8.98%
pH stability study; pH 3 buffer, 480 min
  % Remaining: 1.00%
pH stability study; pH 5 buffer, 15 min
  % Remaining: 85.59%
pH stability study; pH 5 buffer, 30 min
  % Remaining: 52.98%
pH stability study; pH 5 buffer, 60 min
  % Remaining: 33.12%
pH stability study; pH 5 buffer, 120 min
  % Remaining: 13.81%
pH stability study; pH 5 buffer, 240 min
  % Remaining: 2.33%
pH stability study; pH 5 buffer, 480 min
  % Remaining: 0%
pH stability study; pH 7 buffer, 15 min
  % Remaining: 86.24%
pH stability study; pH 7 buffer, 30 min
  % Remaining: 44.91%
pH stability study; pH 7 buffer, 60 min
  % Remaining: 19.80%
pH stability study; pH 7 buffer, 120 min
  % Remaining: 4.02%
pH stability study; pH 7 buffer, 240 min
  % Remaining: 0%
pH stability study; pH 9 buffer, 15 min
  % Remaining: 6.98%
pH stability study; pH 9 buffer, 30 min
  % Remaining: 1.20%
pH stability study; pH 9 buffer, 60 min
  % Remaining: 0.74%
pH stability study; pH 9 buffer, 120 min
  % Remaining: 0%

## CC(=O)N(O)CCCCCNC(=O)CCC(=O)N(O)CCCCCNC(=O)CCC(=O)N(O)CCCCCNC(=O)CCOCCOCCOCCOCCOCCOCCOCCOCCOCCOCCOCCOCCC(=O)Oc1c(Cl)cccc1Cl [Compound J, 2,6-Dichlorophenyl 1-{[5-(N-hydroxy-3-{8 5-(N-hydroxy-3-{[5-(N-hydroxyacetamido)pentyl]carbamoyl}propanamido)pentyl]carbamoyl}propanamido)pentylic carbamoyl}-3,6,9,12,15,18,21,24,27,30,33,36-dodecaoxanonatriacontan-39-oate]
[6]; 0 min
  % Compound J Remaining: 97.49%
[6]; 30 min
  % Compound J Remaining: 97.21%
[6]; 60 min
  % Compound J Remaining: 96.67%
[6]; 120 min
  % Compound J Remaining: 96.11%
[6]; 180 min
  % Compound J Remaining: 96.14%
[6]; 240 min
  % Compound J Remaining: 94.83%
[6]; 480 min
  % Compound J Remaining: 94.39%
[6]; 960 min
  % Compound J Remaining: 91.48%
